The test system of experiment [1] is RS4; 11 leukaemia cell line. The experiment can be described thus: In vitro cytotoxicity, Microculture Tetrazolium Assay (MTT). It is filed as cell-based. Particulars: Homo sapiens, 11 cells exposed for 48 hours. The procedure:
The cytotoxicity studies were carried out on the RS4; 11 leukaemia cell line and on H146 small Cell Lung Carcinoma cell line. The cells are distributed onto microplates and exposed to the test compounds for 48 hours. The cell viability is then quantified by a colorimetric assay, the Microculture Tetrazolium Assay (Cancer Res., 1987, 47, 939-942).

Experiment [2] has as its target Bcl-2 protein (histag-Bcl-2, UniProtKB P10415) (Homo sapiens (Human), UniProt P10415). In words: Inhibition of Bcl-2 by the fluorescence polarisation technique. It counts as binding. Particulars: fluorescence polarisation test; incubation for 2 hours; read-out: IC50 (nM) Bcl-2 FP. An excerpt: For partial inhibitors, the percentage fluorescence polarisation inhibition for a given concentration of the test compound is indicated.
For orientation: In fluorescence polarisation assays a small probe gives low polarisation when free and higher when bound to something large.

The values that follow come from patent US9809574B2, “Isoindoline or isoquinoline compounds, a process for their preparation and pharmaceutical compositions containing them” (LES LABORATOIRES SERVIER, priority 2013, dated 2017).

Counter-ions that a name gives are not always drawn.

Sequence of Bcl-2 protein (P10415 whole entry): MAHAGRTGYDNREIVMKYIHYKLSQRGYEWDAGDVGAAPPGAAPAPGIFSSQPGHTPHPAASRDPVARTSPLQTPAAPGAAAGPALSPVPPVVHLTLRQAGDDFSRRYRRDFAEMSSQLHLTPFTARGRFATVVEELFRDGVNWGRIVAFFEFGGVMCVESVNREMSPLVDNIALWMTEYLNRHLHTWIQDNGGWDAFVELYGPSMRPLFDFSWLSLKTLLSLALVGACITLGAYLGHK

In general, IC50 refers to the concentration needed to halve the response being measured. Turning to `Cc1c(C(=O)N(C)c2ccccc2)cc(-c2cc3c(cc2C(=O)N2Cc4ccccc4C[C@H]2C)CNCC3)n1C` [Example 119, N,1,2-Trimethyl-5-{7-[(3R)-3-methyl-1,2,3,4-tetrahydroisoquinoline-2-carbonyl]-1,2,3,4-tetrahydroisoquinolin-6-yl}-N-phenyl-1H-pyrrole-3-carboxamide hydrochloride], the half-maximal inhibitory concentration (IC50) is > 150 nM in experiment [1] and 622 nM in experiment [2].
The matching figures for `CN(C(=O)c1cc(-c2cc3c(cc2C(=O)N2Cc4ccccc4C[C@H]2CN2CCOCC2)CN(C(=O)Oc2ccc(F)cc2)CC3)n2c1CCCC2)c1ccc(O)cc1` [Example 120, 4-Fluorophenyl 6-{1-[(4-hydroxyphenyl)(methyl)carbamoyl]-5,6,7,8-tetrahydroindolizin-3-yl}-7-[(3S)-3-(morpholin-4-ylmethyl)-1,2,3,4-tetrahydroisoquinoline-2-carbonyl]-1,2,3,4-tetrahydroisoquinoline-2-carboxylate]: 8.2 nM and 2.5 nM.
The like results for `COc1ccc(OC(=O)N2CCc3cc(-c4cc(C(=O)N(C)c5ccc(O)cc5)c5n4CCCC5)c(C(=O)N4Cc5ccccc5C[C@H]4CN4CCOCC4)cc3C2)cc1` [Example 121, 4-Methoxyphenyl 6-{1-[(4-hydroxyphenyl)(methyl)carbamoyl]-5,6,7,8-tetrahydroindolizin-3-yl}-7-[(3S)-3-(morpholin-4-ylmethyl)-1,2,3,4-tetrahydroisoquinoline-2-carbonyl]-1,2,3,4-tetrahydroisoquinoline-2-carboxylate] were, in that order, 2.8 nM and 2.9 nM.
For `CN(C(=O)c1cc(-c2cc3c(cc2C(=O)N2Cc4ccccc4C[C@H]2CN2CCOCC2)CN(C(=O)Oc2ccc(Cl)cc2)CC3)n2c1CCCC2)c1ccc(O)cc1` [Example 122, 4-Chlorophenyl 6-{1-[(4-hydroxyphenyl)(methyl)carbamoyl]-5,6,7,8-tetrahydroindolizin-3-yl}-7-[(3S)-3-(morpholin-4-ylmethyl)-1,2,3,4-tetrahydroisoquinoline-2-carbonyl]-1,2,3,4-tetrahydroisoquinoline-2-carboxylate], the values for the IC50 in experiment [1] and in experiment [2] were 5.4 nM and 2.6 nM, respectively.
Take `C[C@@H]1Cc2ccccc2CN1C(=O)c1cc2c(cc1-c1cc(C(=O)N(C)c3ccc(O)cc3)c3n1CCCC3)CCN(C(=O)Cc1cccc(NCCN(C)C)c1)C2` [Example 123, 3-{2-[2-(3-{[2-(Dimethylamino)ethyl]amino}phenyl)acetyl]-7-[(3R)-3-methyl-1,2,3,4-tetrahydroisoquinoline-2-carbonyl]-1,2,3,4-tetrahydroisoquinolin-6-yl}-N-(4-hydroxyphenyl)-N-methyl-5,6,7,8-tetrahydroindolizine-1-carboxamide]: the IC50 in experiment [1] is 8.3 nM; in experiment [2], 5.3 nM.
On to `CN(C(=O)c1cc(-c2cc3c(cc2C(=O)N2Cc4ccccc4C[C@H]2CN2CCOCC2)CN(C(=O)Oc2ccc(C(F)(F)F)cc2)CC3)n2c1CCCC2)c1ccc(O)cc1` [Example 124, 4-(Trifluoromethyl)phenyl 6-{1-[(4-hydroxyphenyl)(methyl)carbamoyl]-5,6,7,8-tetrahydroindolizin-3-yl}-7-[(3S)-3-(morpholin-4-ylmethyl)-1,2,3,4-tetrahydroisoquinoline-2-carbonyl]-1,2,3,4-tetrahydroisoquinoline-2-carboxylate], for which the IC50 in experiment [1] is 50 nM; in experiment [2] it was 12 nM.
The matching figures for `CN(C(=O)c1cc(-c2cc3c(cc2C(=O)N2Cc4ccccc4C[C@H]2CN2CCOCC2)CN(C(=O)Oc2ccc(OC(F)(F)F)cc2)CC3)n2c1CCCC2)c1ccc(O)cc1` [Example 125, 4-(Trifluoromethoxy)phenyl 6-{1-[(4-hydroxyphenyl)(methyl)carbamoyl]-5,6,7,8-tetrahydroindolizin-3-yl}-7-[(3S)-3-(morpholin-4-ylmethyl)-1,2,3,4-tetrahydroisoquinoline-2-carbonyl]-1,2,3,4-tetrahydroisoquinoline-2-carboxylate]: 49 nM and 8.7 nM.
